Data taken from patent publication US20210032253A1, “PYRAZOLO[1,5-A][1,3,5]TRIAZINE-2-AMINE DERIVATIVE, PREPARATION METHOD THEREFOR AND MEDICAL USE THEREOF” (JIANGSU HENGRUI MEDICINE CO., LTD., priority 2018, published 2021).

How the values were obtained:
[1] = target: T1, adenosine A2a receptor (A2aR) (Homo sapiens, UniProt P29274); experiment: Inhibition of adenosine A2a receptor cAMP signaling pathway in CHO-K1/A2aR cells (HTRF cAMP dynamic 2 kit); type: cell-based; details: Table 1, 20 nM ethylcarbazole
T1 construct: expressed in transfected cells; host or cells: CHO-K1
T1 sequence (P29274 whole entry): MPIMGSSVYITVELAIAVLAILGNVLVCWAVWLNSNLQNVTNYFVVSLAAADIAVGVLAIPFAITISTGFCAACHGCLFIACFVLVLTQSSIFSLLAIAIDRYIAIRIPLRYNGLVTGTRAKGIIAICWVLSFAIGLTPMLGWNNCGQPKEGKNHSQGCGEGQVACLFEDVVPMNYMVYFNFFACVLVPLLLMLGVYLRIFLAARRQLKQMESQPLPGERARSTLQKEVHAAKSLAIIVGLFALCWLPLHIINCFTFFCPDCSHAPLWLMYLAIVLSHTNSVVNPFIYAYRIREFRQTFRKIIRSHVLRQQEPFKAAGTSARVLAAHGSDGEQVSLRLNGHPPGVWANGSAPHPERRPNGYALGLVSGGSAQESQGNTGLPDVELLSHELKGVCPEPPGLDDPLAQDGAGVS
Outline: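 CHO-K1/A2aR cells (10^6 cells/mL) in HBSS with 20 mM HEPES, 0.1% BSA, rolipram and adenosine deaminase, exposed to compound (0.001024–10000 nM) for 30 min at RT. Then agonist "ethylcarbazole" at 20 nM final, 30 min RT. cAMP read by HTRF after 1 h in lysis buffer.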

[2] = Pharmacokinetics assay in mice after intragastrical administration (plasma, LC/MS/MS); type: in vivo; details: mouse, po, C57 mice (female), 2 mg/kg; for Vd/F: read-out: Apparent distribution volume Vz/F; for AUC: read-out: Area under curve AUC; for CL/F: read-out: Clearance CLz/F; for Cmax: read-out: Drug concentration in blood Cmax; for half-life: read-out: Half-life T1/2 (converted); for MRT: read-out: Residence time MRT
Description: Test Example 2. Pharmacokinetics assay of the compounds of the present disclosure in mice
Mice were used as test animals. The drug concentration in plasma at different time points was determined by LC/MS/MS method after intragastrical administration of the compounds of Example 1, Example 18 and Example 19 to mice. The pharmacokinetic behavior of the compounds of the present disclosure was studied and evaluated in mice.
Twenty-seven C57 mice (female) were purchased from Shanghai Jiesijie Laboratory Animal Co., LTD, with Certificate No.: SCXK (Shanghai) 2013-0006, and equally divided into 3 groups (9 mice per group).
A certain amount of the test compound was weighed, and added with 2.5% by volume of DMSO, 2.5% by volume of tween 80 and 95% by volume of normal saline to prepare a 0.1 mg/mL colorless, clear and transparent solution.
After an overnight fast, C57 mice were administered intragastrically with the test compounds at an administration dose of 2.0 mg/kg and an administration volume of 0.2 mL/10 g.
The mice were intragastrically administered with the compounds of Example 1, Example 18 and Example 19. 0.1 mL of blood (3 animals at each time point) was taken before administration and at 0.5, 1.0, 2.0, 4.0, 6.0, 8.0, 11.0 and 24.0 hours after administration. The samples were stored in heparinized tubes, and centrifuged for 10 minutes at 3,500 rpm to separate the plasma. The plasma samples were stored at −20° C., the mice was feed 2 hours after administration.
The content of the test compounds in the plasma of the mice after intragastrical administration of the test compounds at different concentrations was determined: 25 μL of the plasma obtained at each time point after administration was taken, added with 30 μL of the internal standard solution of camptothecin (100 ng/mL) and 200 μL of acetonitrile, vortex-mixed for 5 minutes, and centrifuged for 10 minutes (4000 rpm). 3 μL of the supernatant was taken for LC/MS/MS analysis.

Row | IC50 [1] [nM] | Vd/F [2] [L/kg] | AUC [2] [ng·h/mL] | CL/F [2] [mL/min/kg] | Cmax [2] [ng/mL] | half-life [2] [h] | MRT [2] [h] | SMILES
1 | 0.33 | 1.9 | 724 | 45.9 | 800 | 0.48 | 0.85 | Cc1ccc(-c2nc(N)nc3c(Cc4cccc(CO[C@H]5CCOC5)n4)cnn23)o1 [Example 1, (S)-4-(5-Methylfuran-2-yl)-8-((6-(((tetrahydrofuran-3-yl)oxy)methyl)pyridin-2-yl)methyl)pyrazolo[1,5-a][1,3,5]triazin-2-amine]
2 | 0.87 | 0.841 | 4860 | 6.83 | 3180 | 1.42 | 1.63 | Cc1ccc(-c2nc(N)nc3c(Nc4cccc(CO[C@H]5CCOC5)n4)cnn23)o1 [Example 18, (S)-4-(5-Methylfuran-2-yl)-N^8-(6-(((tetrahydrofuran-3-yl)oxy)methyl)pyridin-2-yl)pyrazolo[1,5-a][1,3,5]triazine-2,8-diamine]
3 | 0.36 | 2.12 | 2490 | 13.3 | 2360 | 1.85 | 1.24 | Cc1ccc(-c2nc(N)nc3c(Oc4cccc(CO[C@H]5CCOC5)n4)cnn23)o1 [Example 19, (S)-4-(5-Methylfuran-2-yl)-8-((6-(((tetrahydrofuran-3-yl)oxy)methyl)pyridin-2-yl)oxy)pyrazolo[1,5-a][1,3,5]triazin-2-amine]
